Test results as given in ChEMBL document CHEMBL5214910, “Rational Design of Dipicolylamine-Containing Carbazole Amphiphiles Combined with Zn2+ as Potent Broad-Spectrum Antibacterial Agents with a Membrane-Disruptive Mechanism” (J Med Chem, 2021).
Values after ≈ are worked out from the molar mass of the structure shown.

Tests used:
Staphylococcus aureus [1] = assay: Antibacterial activity against Staphylococcus aureus ATCC 29213 assessed as inhibition of bacterial growth incubated for 24 hrs by Muller hinton broth based dilution assay; format: functional
Escherichia coli [2] = assay: Antibacterial activity Escherichia coli ATCC 25922 assessed as inhibition of bacterial growth incubated for 24 hrs by Muller hinton broth based dilution assay; format: functional
[3] = Hemolytic activity in rabbit RBC incubated for 1 hrs by fluorescence based microplate reader assay; format: toxicity, cell-based, Oryctolagus cuniculus, Erythrocyte; conditions: rabbit red blood cells (erythrocytes)
Pseudomonas aeruginosa [4] = assay: Antibacterial activity Pseudomonas aeruginosa ATCC 9027 assessed as inhibition of bacterial growth incubated for 24 hrs by Muller hinton broth based dilution assay; format: functional
Staphylococcus aureus [5] = assay: Antibacterial activity against Methicillin-resistant Staphylococcus aureus N315 assessed as inhibition of bacterial growth incubated for 24 hrs by Muller hinton broth based dilution assay; format: functional
Staphylococcus aureus [6] = assay: Antibacterial activity against Methicillin-resistant Staphylococcus aureus NCTC10442 assessed as inhibition of bacterial growth incubated for 24 hrs by Muller hinton broth based dilution assay; format: functional
Acinetobacter baumannii [7] = assay: Antibacterial activity against Acinetobacter baumannii ATCC 17978 assessed as inhIbition of bacterial growth incubated for 24 hrs by Muller hinton broth based dilution assay; format: functional
Acinetobacter baumannii [8] = assay: Antibacterial activity against Acinetobacter baumannii R2889 assessed as inhIbition of bacterial growth incubated for 24 hrs by Muller hinton broth based dilution assay; format: functional
Staphylococcus aureus [9] = assay: Antibacterial activity against Methicillin-resistant Staphylococcus aureus N315 assessed as inhibition of bacterial growth incubated for 24 hrs in the presence of 12.5 ug/mL Zn2+ by Muller hinton broth based dilution assay; format: functional
Acinetobacter baumannii [10] = assay: Antibacterial activity against Acinetobacter baumannii ATCC 17978 assessed as inhIbition of bacterial growth incubated for 24 hrs in the presence of 12.5 ug/mL Zn2+ by Muller hinton broth based dilution assay; format: functional
Pseudomonas aeruginosa [11] = assay: Antibacterial activity Pseudomonas aeruginosa ATCC 9027 assessed as inhibition of bacterial growth incubated for 24 hrs in the presence of 12.5 ug/mL Zn2+ by Muller hinton broth based dilution assay; format: functional
Staphylococcus aureus [12] = assay: Antibacterial activity against Methicillin-resistant Staphylococcus aureus NCTC10442 assessed as inhibition of bacterial growth incubated for 24 hrs in the presence of 12.5 ug/mL Zn2+ by Muller hinton broth based dilution assay; format: functional
Escherichia coli [13] = assay: Antibacterial activity Escherichia coli ATCC 25922 assessed as inhibition of bacterial growth incubated for 24 hrs in the presence of 12.5 ug/mL Zn2+ by Muller hinton broth based dilution assay; format: functional
Staphylococcus aureus [14] = assay: Antibacterial activity against Staphylococcus aureus ATCC 29213 assessed as inhibition of bacterial growth incubated for 24 hrs in the presence of 12.5 ug/mL Zn2+ by Muller hinton broth based dilution assay; format: functional
Acinetobacter baumannii [15] = assay: Antibacterial activity against Acinetobacter baumannii R2889 assessed as inhIbition of bacterial growth incubated for 24 hrs in the presence of 12.5 ug/mL Zn2+ by Muller hinton broth based dilution assay; format: functional
[16] = Hemolytic activity in rabbit RBC incubated for 1 hrs in the presence of 12.5 ug/mL Zn2+ by fluorescence based microplate reader assay; format: toxicity, cell-based, Oryctolagus cuniculus, Erythrocyte; conditions: rabbit red blood cells (erythrocytes)
Pseudomonas aeruginosa [17] = assay: Antibacterial activity against Pseudomonas aeruginosa ATCC 9027 in C57BL/6 mouse model of bacterial keratitis assessed as log reduction in viable bacterial count in infected cornea at 0.3 % pre-infected with bacteria for 24 hrs followed by topical administration of compound four times a day for 3 days; format: functional; conditions: route top, time 3 day

In the case of `CCCCCCCn1c2ccccc2c2c(OCC3CO3)cccc21` (stereo not drawn), the MIC (Staphylococcus aureus [1]) was over 50 µg/mL, the MIC (Escherichia coli [2]) was over 50 µg/mL and the HC50 at 1 h [3] was over 200 µg/mL. For the same compound, the MIC (Pseudomonas aeruginosa [4]) was over 50 µg/mL, the MIC (Staphylococcus aureus [5]) was over 50 µg/mL and the MIC (Staphylococcus aureus [6]) was over 50 µg/mL. The MIC (Acinetobacter baumannii [7]) was over 50 µg/mL and the MIC (Acinetobacter baumannii [8]) was over 50 µg/mL.
`CCCn1c2ccccc2c2c(OCC3CO3)cccc21` (stereo not drawn) gave an MIC (Staphylococcus aureus [1]) of over 50 µg/mL, an MIC (Escherichia coli [2]) of over 50 µg/mL and an HC50 at 1 h [3] of over 200 µg/mL. For the same compound, the MIC (Pseudomonas aeruginosa [4]) was over 50 µg/mL, the MIC (Staphylococcus aureus [5]) was over 50 µg/mL and the MIC (Staphylococcus aureus [6]) was over 50 µg/mL. For the same compound, the MIC (Acinetobacter baumannii [7]) was over 50 µg/mL and the MIC (Acinetobacter baumannii [8]) was over 50 µg/mL.
`O=C(O)c1cn(C2CC2)c2cc(N3CCNCC3)c(F)cc2c1=O` [CIPROFLOXACIN] gave an MIC (Staphylococcus aureus [1]) of 0.39 µg/mL (≈ 1.18 µM), an MIC (Escherichia coli [2]) of 0.049 µg/mL (≈ 0.148 µM) and an MIC (Staphylococcus aureus [9]) of 0.39 µg/mL. For the same compound, the MIC (Acinetobacter baumannii [10]) was 0.39 µg/mL, the MIC (Pseudomonas aeruginosa [4]) was 0.195 µg/mL (≈ 0.589 µM) and the MIC (Staphylococcus aureus [5]) was 0.39 µg/mL (≈ 1.18 µM). The MIC (Pseudomonas aeruginosa [11]) was 0.195 µg/mL, the MIC (Staphylococcus aureus [6]) was 0.39 µg/mL (≈ 1.18 µM) and the MIC (Staphylococcus aureus [12]) was 0.39 µg/mL. For the same compound, the MIC (Escherichia coli [13]) was 0.049 µg/mL, the MIC (Staphylococcus aureus [14]) was 0.39 µg/mL and the MIC (Acinetobacter baumannii [15]) was 0.78 µg/mL. It also gave an MIC (Acinetobacter baumannii [7]) of 0.39 µg/mL (≈ 1.18 µM) and an MIC (Acinetobacter baumannii [8]) of 0.78 µg/mL (≈ 2.35 µM).
Compound `OC(COc1cccc2[nH]c3ccccc3c12)CN(Cc1ccccn1)Cc1ccccn1` (stereo not drawn) has an MIC (Staphylococcus aureus [1]) of 25 µg/mL (≈ 57 µM), an MIC (Escherichia coli [2]) of over 50 µg/mL and an HC50 at 1 h [3] of over 200 µg/mL. For the same compound, the MIC (Staphylococcus aureus [9]) was 6.25 µg/mL, the MIC (Acinetobacter baumannii [10]) was 50 µg/mL and the MIC (Pseudomonas aeruginosa [4]) was over 50 µg/mL. The MIC (Staphylococcus aureus [5]) was 25 µg/mL (≈ 57 µM), the MIC (Pseudomonas aeruginosa [11]) was 12.5 µg/mL and the MIC (Staphylococcus aureus [6]) was 25 µg/mL (≈ 57 µM). The MIC (Staphylococcus aureus [12]) was 12.5 µg/mL, the MIC (Escherichia coli [13]) was over 50 µg/mL and the HC50 at 1 h [16] was over 200 µg/mL. The MIC (Staphylococcus aureus [14]) was 6.25 µg/mL, the MIC (Acinetobacter baumannii [15]) was over 50 µg/mL and the MIC (Acinetobacter baumannii [7]) was 50 µg/mL (≈ 114 µM). It also gave an MIC (Acinetobacter baumannii [8]) of over 50 µg/mL.
`FC(F)(F)CCCn1c2ccccc2c2c(OCC3CO3)cccc21` (stereo not drawn) gave an MIC (Staphylococcus aureus [1]) of over 50 µg/mL, an MIC (Escherichia coli [2]) of over 50 µg/mL and an MIC (Pseudomonas aeruginosa [4]) of over 50 µg/mL. For the same compound, the MIC (Staphylococcus aureus [5]) was over 50 µg/mL, the MIC (Staphylococcus aureus [6]) was over 50 µg/mL and the MIC (Acinetobacter baumannii [7]) was over 50 µg/mL. It also gave an MIC (Acinetobacter baumannii [8]) of over 50 µg/mL.
With `c1ccc2c(c1)[nH]c1cccc(OCC3CO3)c12` (stereo not drawn) the MIC (Staphylococcus aureus [1]) was over 50 µg/mL, the MIC (Escherichia coli [2]) was over 50 µg/mL and the HC50 at 1 h [3] was over 200 µg/mL. The MIC (Pseudomonas aeruginosa [4]) was over 50 µg/mL, the MIC (Staphylococcus aureus [5]) was over 50 µg/mL and the MIC (Staphylococcus aureus [6]) was over 50 µg/mL. It also gave an MIC (Acinetobacter baumannii [7]) of over 50 µg/mL and an MIC (Acinetobacter baumannii [8]) of over 50 µg/mL.
With `CCCCCCCCCn1c2ccccc2c2c(OCC(O)CN(Cc3ccccn3)Cc3ccccn3)cccc21` (stereo not drawn) the MIC (Staphylococcus aureus [1]) was 3.12 µg/mL (≈ 5.53 µM), the MIC (Escherichia coli [2]) was over 50 µg/mL and the HC50 at 1 h [3] was over 200 µg/mL. It also gave an MIC (Staphylococcus aureus [9]) of 0.78 µg/mL, an MIC (Acinetobacter baumannii [10]) of 12.5 µg/mL and an MIC (Pseudomonas aeruginosa [4]) of over 50 µg/mL. It also gave an MIC (Staphylococcus aureus [5]) of 0.78 µg/mL (≈ 1.38 µM), an MIC (Pseudomonas aeruginosa [11]) of over 50 µg/mL and an MIC (Staphylococcus aureus [6]) of 6.25 µg/mL (≈ 11.1 µM). The MIC (Staphylococcus aureus [12]) was 6.25 µg/mL, the MIC (Escherichia coli [13]) was over 50 µg/mL and the HC50 at 1 h [16] was over 200 µg/mL. For the same compound, the MIC (Staphylococcus aureus [14]) was 3.12 µg/mL, the MIC (Acinetobacter baumannii [15]) was over 50 µg/mL and the MIC (Acinetobacter baumannii [7]) was over 50 µg/mL. The MIC (Acinetobacter baumannii [8]) was over 50 µg/mL.
In the case of `CCCCCCCCCn1c2ccccc2c2c(OCC3CO3)cccc21` (stereo not drawn), the MIC (Staphylococcus aureus [1]) was over 50 µg/mL, the MIC (Escherichia coli [2]) was over 50 µg/mL and the HC50 at 1 h [3] was over 200 µg/mL. It also gave an MIC (Pseudomonas aeruginosa [4]) of over 50 µg/mL, an MIC (Staphylococcus aureus [5]) of over 50 µg/mL and an MIC (Staphylococcus aureus [6]) of over 50 µg/mL. The MIC (Acinetobacter baumannii [7]) was over 50 µg/mL and the MIC (Acinetobacter baumannii [8]) was over 50 µg/mL.
For `COc1c(N2CCNC(C)C2)c(F)cc2c(=O)c(C(=O)O)cn(C3CC3)c12` (stereo not drawn) [GATIFLOXACIN], the “log(activity)” value (Pseudomonas aeruginosa [17]) was 3.03.
`Cn1c2ccccc2c2c(OCC(O)CN(Cc3ccccn3)Cc3ccccn3)cccc21` (stereo not drawn) showed an MIC (Staphylococcus aureus [1]) of 12.5 µg/mL (≈ 27.6 µM), an MIC (Escherichia coli [2]) of 50 µg/mL (≈ 110 µM) and an HC50 at 1 h [3] of over 200 µg/mL. The MIC (Staphylococcus aureus [9]) was 1.56 µg/mL, the MIC (Acinetobacter baumannii [10]) was 12.5 µg/mL and the MIC (Pseudomonas aeruginosa [4]) was over 50 µg/mL. For the same compound, the MIC (Staphylococcus aureus [5]) was 6.25 µg/mL (≈ 13.8 µM), the MIC (Pseudomonas aeruginosa [11]) was 12.5 µg/mL and the MIC (Staphylococcus aureus [6]) was 12.5 µg/mL (≈ 27.6 µM). For the same compound, the MIC (Staphylococcus aureus [12]) was 6.25 µg/mL, the MIC (Escherichia coli [13]) was 50 µg/mL and the HC50 at 1 h [16] was over 200 µg/mL. It also gave an MIC (Staphylococcus aureus [14]) of 3.12 µg/mL, an MIC (Acinetobacter baumannii [15]) of 25 µg/mL and an MIC (Acinetobacter baumannii [7]) of 12.5 µg/mL (≈ 27.6 µM). The MIC (Acinetobacter baumannii [8]) was 25 µg/mL (≈ 55.2 µM).
`CC(C)=CCn1c2ccccc2c2c(OCC(O)CNCc3ccccn3)cccc21` (stereo not drawn) showed an MIC (Staphylococcus aureus [1]) of 6.25 µg/mL (≈ 15 µM), an MIC (Escherichia coli [2]) of 50 µg/mL (≈ 120 µM) and an HC50 at 1 h [3] of over 200 µg/mL. The MIC (Staphylococcus aureus [9]) was 3.12 µg/mL, the MIC (Acinetobacter baumannii [10]) was over 50 µg/mL and the MIC (Pseudomonas aeruginosa [4]) was over 50 µg/mL. The MIC (Staphylococcus aureus [5]) was 6.25 µg/mL (≈ 15 µM), the MIC (Pseudomonas aeruginosa [11]) was over 50 µg/mL and the MIC (Staphylococcus aureus [6]) was 6.25 µg/mL (≈ 15 µM). For the same compound, the MIC (Staphylococcus aureus [12]) was 6.25 µg/mL, the MIC (Escherichia coli [13]) was over 50 µg/mL and the HC50 at 1 h [16] was over 200 µg/mL. For the same compound, the MIC (Staphylococcus aureus [14]) was 3.12 µg/mL, the MIC (Acinetobacter baumannii [15]) was over 50 µg/mL and the MIC (Acinetobacter baumannii [7]) was over 50 µg/mL. It also gave an MIC (Acinetobacter baumannii [8]) of over 50 µg/mL.
